Broadly, the tissue uptake is the percentage of the injected dose found per gram of tissue.

The text below walks through data of patent publication US11576987B2, “Compositions and methods of treating melanoma” (UNIVERSITY OF IOWA RESEARCH FOUNDATION, priority 2016, dated 2023).

One data set deals with MCR1 expression. In words: Pharmacological enhancement of MCR1 expression in human melanoma cells by drug incubation. The format is cell-based. The following applies: for MCR1 expression: metastatic melanoma cells. From the text: Melanoma if detected early can be cured by surgery, but metastatic melanoma is lethal. New therapies (e.g., immunotherapy; BRAF inhibition, BRAFi) and combinations extend life, but low response rates, acquired drug resistance, and serious side effects are major challenges to improving outcomes for disseminated disease (5 y survival 17%). Peptide-based radionuclide therapy targeted to the melanocortin-receptor type 1 (MCR1-RT) has long been considered a promising alternative; and MCR1-RT has achieved complete responses in mouse models (B16). However, MCR1 expression is heterogeneous/low in human melanoma, and as a result, no previous MCR1-RT study has employed successfully human melanoma cell xenografts. […] This introduces innovative Pb-specific chelator combined with a “click-cyclized” peptide (PSC-C-MCR1) to improve tumor:kidney ratio of radionuclide uptake 7-fold. An effective therapy for metastatic melanoma is developed that combines MCR1-RT with pharmacological agents (PBA; BRAFi/MEKi; HDACi) that enhance MCR1 expression.
Melanoma is the fastest growing cancer incidence in the United States. Surgery combined with radiation can be curative at early stages. However, metastatic melanoma is almost uniformly fatal (5-yr survival 17%). Recent breakthrough targeted MAPKi therapies (e.g., BRAFi) and immunotherapies (e.g., PD-1 inhibitors) have improved outcomes, but low response rates, acquired drug resistance, and adverse side effects limit quality of life for metastatic melanoma patients. For example, approval of immune-checkpoint inhibitor ipilimumab was based on an improvement in overall survival of only 3.7 months (overall response <15%). Combination immunotherapies have improved response (up to 61%), but grade 3/4 adverse events (up to 55%) often lead to therapy discontinuation (up to 36%). For targeted therapies, BRAF inhibitor vemurafenib was approved based on overall survival at 6 months of 84% vs 64% in the control arm (dacarbazine). Combining BRAFi with MEK inhibitors (MEKi) has led to modest improvements, yet recurrence is virtually inevitable. The mechanisms of acquired drug resistance are complex, and include altered/alternative oncogenic pathways; tumor heterogeneity; and enhanced DNA repair. Melanocortin-receptor type 1 targeted radionuclide therapy (MCR1-RT) has long been considered a promising alternative treatment for melanoma; and MCR1-targeted α-particle therapy (^212Pb) has achieved complete responses in mice bearing mouse (B16) tumors that highly express MCR1. However, these studies have been confined primarily to mouse melanoma (B16) cells because MCR1 expression is heterogeneous/low in human melanoma.
Combination therapies for metastatic melanoma are emerging as common practice (e.g., BRAFi plus MEK; and combination immunotherapies), but melanoma almost invariably develops resistance. MCR1-RT has long been considered a promising alternative, but previous therapy studies have been limited to the use of B16 mouse melanoma cells that highly express the MCR1 protein, because native MCR1 expression in human melanoma is heterogeneous/low.

The next data set concerns MC1R expression. In words: Real-time PCR analysis of MC1R expression in melanoma cells. The following applies: substantiated by flow cytometry and radiopeptide binding. In kind it is cell-based, human. The protocol:
FIG. 10. Real-time PCR analysis of MC1R expression in A2058 and MEWO melanoma cells. A2058 cells were exposed to BRAFi GSK2118436, MEKi GSK1120212 and HDACi PBA for 24 h. Similarly, MEWO cells were treated with PBA and SAHA. Total RNA was isolated and reverse transcripted to cDNA. Real-time PCR was performed using 50 ng of each cDNA sample with labeled primer VIC-MC1R and FAM-NADPH. mRNA fold changes were calculated by ΔΔCt method and expressed as (n=3; Mean±SEM).
qPCR measurements are included to measure the change in MCR1 mRNA with changes in the concentration and incubation time for each drug and combinations (FIG. 10). These experiments are carried out as in FIG. 10 according to manufacturers' protocols, cells are seeded into 6-well plates until ˜80% confluent. After drug treatments, total RNA is isolated (Qiagen RNeasy Mini Kit). 1 μg of total RNA from each cell sample is used for reverse transcription using a high capacity reverse transcription kit (Applied Biosystem). cDNA samples are kept at −80° C. until use. Upon use, cDNA templates are employed in the qRT-PCR using a Taqman Gene Expression Assay for human MC1R (Assay ID: Hs00267167_s1). Human 18S (Assay ID: Hs99999901_s1) and human GAPDH (Assay ID: Hs03929097_g1) are used as housekeeping gene controls. […] Reactions are carried out in Applied Biosystem 7900HT. mRNA level is calculated by comparative ΔΔCt method.
In general terms: Quantitative PCR measures a nucleic acid by following its amplification.

Data set [1] has as its system B16 mouse metastatic melanoma tumor model. The following applies: 60 m post injection; cited from earlier work.
Data set [2] has the same test system. In words: Tumor and kidney accumulation of click cyclized MCR1 peptide in mouse studies. The format is in vivo. To be noted: i.v. injection. The source says: (§1) The peptide backbone selected for the proposed investigation is based on a variant that was introduced previously with the addition of new evidence for improved internalization with the inclusion of a short polyethylene glycol linker between the chelator and the peptide backbone (FIG. 17). […] This peptide performance represents a 7-fold improvement in tumor:kidney ratio compared to the Re-cyclized peptide used previously. The use of the Re-cyclized peptide is for comparison to the previously published alpha-particle MCR1-targeted therapy study (using B16 mouse melanoma tumors). (Leachman S A, Cassidy P B, Chen S C, Curiel C, Geller A, Gareau D, Pellacani G, Grichnik J M, Malvehy J, North J, Jacques S L, Petrie T, Puig S, Swetter S M, Tofte S, Weinstock M A. Methods of Melanoma Detection. Cancer Treat Res. 2016; 167:51-105.) Thus, the DOTA-C-MCR1 (published previously) and new PSC-C-MCR1 peptides shown in FIG. 17 are used to take advantage of the observed improved tumor:kidney ratio.
(§2) Preliminary data support the hypothesis that co-injection of PBA with [^203Pb]MCR1-targeted peptides can reduce kidney accumulation of the radiopeptide (FIGS. 14A-B), while improving tumor accumulation in mice bearing human metastatic melanoma tumors (FIG. 14B imaging; FIGS. 15A-B therapy). […]

Experiment in data set [3]: as above
In kind it is in vivo. The following applies: kidney, iv, 90 min. post i.v. injection.
Text: as §1, §2

The next data set deals with metastatic melanoma. The following applies: patients, cited from earlier work.
The subject of data set [4] is BRAFi-resistant A375VR cells. In words: Clonogenic survival of BRAFi-resistant melanoma cells. In kind it is cell-based, human. The following applies: 5 μM vemurafenib in the absence of PBA. The protocol:
FIGS. 13A-13B. PBA treatment promotes cell death of BRAFi-resistant metastatic melanoma and upregulates MCR1 expression in a time dpe. (A) BRAFi-resistant A375VR cells were incubated with 5 μM vemurafenib in combination with ER-stress-relieving drug 4-PBA for up to 6 days. […] (B) Flow cytometry analysis of MCR1 expression in A2058 and A375 malignant melanoma cells. Cells were treated with 3 mmole 4-PBA for 4 h and 24 h (n=3). The treated and untreated (control) cells were stained with anti-MC1R-phycoerythrin (PE) monoclonal antibody conjugate. Fluorescence intensity was corrected by auto-fluorescence of cells without staining and data were expressed as relative fluorescence intensity (IF) (vs. control)±SD.
Accumulation of misfolded-proteins causes upregulation and detachment of ER resident protein GRP78 from ER sensors proteins—activating the unfolded protein response (UPR) and downstream signaling pathways (including autophagy). […] Thus, the potential for a pharmacological treatment that would sensitize BRAFi-resistant cells to BRAFi by reducing ER-stress was considered. BRAFi-resistant A375VR melanoma cells were incubated with BRAFi vemurafenib alone and in combination with ER-stress relieving PBA.

Positions of bridges follow the written chain, without caps; N, C: chain ends. Non-standard residues stand in square brackets, D forms with d. Residues, ends and D or L forms follow the SMILES beside them. Groups on a side chain read outwards from the residue. Triazole bridges read from a SMILES are 1,4-linked. *: point of attachment. DOTA = O=C(O)CN1CCN(CC(=O)O)CCN(CC(=O)*)CCN(CC(=O)O)CC1; Lys(N3) = [N-]=[N+]=NCCCC[CH](N)C(=O)O; Nle = CCCC[CH](N)C(=O)O; Pra = C#CC[CH](N)C(=O)O; PEG2 = NCCOCCOCCC(=O)O

As to `O=C(CCCCCCC(=O)Nc1ccccc1)NO` [Vorinostat], the “enhancement of MCR1 expression” value in the data set with MCR1 expression (human melanoma cells, incubation with drug) is “up to 12 fold”. Besides, the “MCR1 expression by RT-PCR” value with MC1R expression is given as “Enhanced expression of MCR1”.

Consider `CCCCC(NC(C)=O)C(=O)NC1Cc2cn(nn2)CCCCC(C(=O)NC(CCCCNC(=O)CCOCCOCCNC(=O)CN2CCN(CC(=O)O)CCN(CC(=O)O)CCN(CC(=O)O)CC2)C(N)=O)NC(=O)C(Cc2c[nH]c3ccccc23)NC(=O)C(CCCNC(=N)N)NC(=O)C(Cc2ccccc2)NC(=O)C(Cc2c[nH]cn2)NC1=O` (stereo not shown) [[^68Ga]DOTA-C-MCR1, metal not drawn] (Ac-[Nle][Pra]HFRW[Lys(N3)]K([PEG2-DOTA])-NH2; triazole 2-7; configuration not given here), for which the “tumor:kidney ratio” value in data set [1] was 3.4. Moreover, the “injected dose per gram (tumor)” value in data set [2] was “up to 16 % ID/g”. Further, in data set [3], the tissue uptake at 1.5 h was less than 5 %ID/g.

As to `O=C(c1ccc(F)c(F)c1Nc1ccc(I)cc1F)N1CC(O)([C@@H]2CCCCN2)C1` [cobimetinib], the MCR1 expression result in the data set with MCR1 expression was “upregulate MCR1 expression”.

With `CC(C)(C)c1nc(-c2cccc(NS(=O)(=O)c3c(F)cccc3F)c2F)c(-c2ccnc(N)n2)s1` [dabrafenib], the MCR1 expression entry in the data set on MCR1 expression is “upregulate MCR1 expression”.

For `CCCS(=O)(=O)Nc1ccc(F)c(C(=O)c2c[nH]c3ncc(-c4ccc(Cl)cc4)cc23)c1F` [vemurafenib], the MCR1 expression result in the data set with MCR1 expression is on record as “upregulate MCR1 expression”. In the data set on metastatic melanoma (approval trial), the “overall survival at 6 months” value is listed as 84%. Besides, the “slowing of tumor progression” value with metastatic melanoma (metastatic melanoma) is “about 5.3 months”. In addition, in data set [4], the clonogenic survival entry is “No change in clonogenic survival”.

For the compound ipilimumab: immune-checkpoint inhibitor, the “improvement in overall survival” value with metastatic melanoma (basis of approval) was 3.7 months. Also, in the data set on metastatic melanoma, the overall response is on record as less than 15%.
